{
  "source": "patent US12064376B2",
  "about": "“Rho kinase inhibitor releasing implants and related methods of use” (priority 2020, dated 2024)",
  "origin": "cited, not measured here",
  "key": {"[1]": {"tested_on": "Porcine corneal endothelial cells (CECs)", "settings": "10 μM Y-27632 or 2.5 μM H-1152, 2, 24 and 48 hours"}, "[2]": {"tested_on": "rabbit model of corneal endothelial dysfunction", "settings": "1 mM topical, 2 drops QID three days then TID seven days"}, "[3]": {"tested_on": "human corneal endothelial cells (HCEC)", "settings": "ripasudil 0.3 to 30 μM, 48 hours, HCEC in vitro"}, "[4]": {"tested_on": "rabbit corneal endothelial damage model", "settings": "freeze model, topical 0.4% or 0.8% drops BID or QID"}, "[5]": {"tested_on": "rabbit corneal endothelial damage model", "settings": "scrape model"}, "[6]": {"tested_on": "failed descemetorhexis", "settings": "patient with failed descemetorhexis"}, "[7]": {"tested_on": "monkey model of corneal endothelial cell damage"}, "[8]": {"tested_on": "Fuch's corneal dystrophy"}, "[9]": {"tested_on": "bullous keratopathy"}, "[10]": {"settings": "at 1 year, MCEC and ROCK inhibitor eyes"}, "[11]": {"settings": "by 24 weeks, eleven patients, 1×10^6 human CECs per 300 μL with Y-27632"}},
  "data": [
    {"smiles": "Cc1cncc2cccc(S(=O)(=O)N3CCCNC[C@@H]3C)c12", "note": "[H-1152]", "values": [
      {"measurement": "cell morphology", "setting": "[1]", "value": "monolayer with polygonal structure and tight junctions"},
      {"measurement": "migration of cells from the scratch", "setting": "[1]", "value": "enhanced"},
      {"measurement": "corneal thickness versus controls", "setting": "[2]", "value": "less"}
    ]},
    {"smiles": "C[C@H]1CNCCCN1S(=O)(=O)c1cccc2cncc(F)c12", "note": "[ripasudil]", "values": [
      {"measurement": "DNA and endothelial cell proliferation", "setting": "[3]", "value": "significantly enhanced"},
      {"measurement": "corneal haze versus controls", "setting": "[4]", "value": "less hazy corneas"},
      {"measurement": "proliferation in treated eyes", "setting": "[4]", "value": "better in the ROCK inhibitor treated eyes in a dose dependent fashion"},
      {"measurement": "wound size versus controls", "setting": "[4]", "value": "smaller"},
      {"measurement": "treated eyes clear", "setting": "[5]; day 14, control 0/6", "value": "5/6"},
      {"measurement": "corneal thickening", "setting": "[5]; no change with control", "value": "⅓"},
      {"measurement": "outcome of case study", "setting": "[6]", "value": "salvaged patient"}
    ]},
    {"smiles": "C[C@@H](N)[C@H]1CC[C@H](C(=O)Nc2ccncc2)CC1", "note": "[Y-27632]", "values": [
      {"measurement": "cell morphology", "setting": "[1]", "value": "monolayer with polygonal structure and tight junctions"},
      {"measurement": "migration of cells from the scratch", "setting": "[1]", "value": "enhanced"},
      {"measurement": "survival and engraftment of injected cultured endothelial cells", "setting": "[7]; 5×10^5 CECs in 200 μl with ROCK inhibitor, intracameral", "value": "enhanced"},
      {"measurement": "adverse events", "setting": "[7]; MCEC with concomitant ROCK inhibitor, intracameral injection", "value": "without adverse events such as glaucoma"},
      {"measurement": "corneal clarity", "setting": "[7]; [10]", "value": "clear corneas"},
      {"measurement": "corneal endothelial cell density", "setting": "[7]; [10]", "value": 2000, "unit": "cells/mm^2"},
      {"measurement": "preserving corneal clarity", "setting": "[8]; Fuch's corneal dystrophy, eye drop", "value": "effective"},
      {"measurement": "corneal thickening", "setting": "[8]; Fuch's patients", "value": "decrease"},
      {"measurement": "efficacy by severity of corneal endothelial dysfunction", "setting": "[8]; mild (central edema) versus severe (diffuse edema)", "value": "effective in mild cases (central edema) of corneal endothelial dysfunction, but not severe (diffuse edema)"},
      {"measurement": "number of patients with >500 cells/mm^2", "setting": "[9]; [11]", "value": 11},
      {"measurement": "number of patients with >1000 cells/mm^2", "setting": "[9]; [11]", "value": 10},
      {"measurement": "adverse events", "setting": "[9]; eleven patients", "value": "One case of steroid induced intraocular pressure (IOP) and no other adverse events"},
      {"measurement": "corneal thickness", "setting": "[9]; in all but 1 case, corneas became clear", "value": "< 630", "unit": "μm"}
    ]}
  ]
}
